According to patent publication US20230083417A1, “THERAPEUTIC COMBINATION FOR THE TREATMENT OF BRAIN ISCHEMIA AND SAID THERAPEUTIC COMBINATION FOR USE IN THE TREATMENT OF BRAIN ISCHEMIA” (Universiteit Maastricht, priority 2020, published 2023):
“Also recorded” adds a separate entry of the source.

Tests used:
[1] = test system: C57BL/6J mice subjected to middle cerebral artery occlusion (MCAO); test: In vivo MCAO ischemia model (1 h tMCAO), infarct volume by TTC; conditions: for infarct volume: i.p. 1 h after reperfusion, L-NAME 3 mg/kg, GKT136901 10 mg/kg, BAY60-2770 0.5 μg/kg; for infarct volume / infarct size, single therapy: 24 h; for infarct volume / infarct volume, subthreshold doses and triple combination: alone or combined at identical doses; for infarct volume, subthreshold doses and triple combination: 1 h post-ischemia, i.p., PTU 3 mg/kg, PPZ 1 mg/kg, riociguat 0.004 mg/kg; for infarct size, single therapy: i.p. 1 h post-reperfusion, perphenazine 3 mg/kg, PTU 9 mg/kg, riociguat 0.01 mg/kg
Procedure: In vivo MCAO Ischemia Model. —C57BL/6J mice were subjected to middle cerebral artery occlusion (MCAO) during 1 h followed by 24 h of reperfusion. Mice were anesthetized with 1.5% isoflurane (Abbott) in a 70% N2O/30% O2 mixture. Core body temperature was maintained at 37° C. The external carotid artery was ligated and a rubber-coated 6.0 nylon monofilament (6021; Doccol) was inserted to occlude the origin of the right MCA for 60 minutes. Then, animals were re-anesthetized and the occluding monofilament was withdrawn to allow for reperfusion^10. L-NAME (NOSi, 3 mg/kg) or propylthiouracil (NOSi, 9 mg/kg), GKT136901 (NOXi, 10 mg/kg) or perphenazine (NOXi, 3 mg/kg) and BAY60-2770 (sGCa, 0.5 μg/kg) or riociguat (sGCs, 0.1 mg/kg), as well as combinations of these compounds were dissolved and vehicle or compound(s) were injected intraperitoneally (i.p.) 1 h after reperfusion. After 23 h of reperfusion animals were sacrificed and brains were quickly removed and cut in 3 2-mm thick coronal sections. The slices were stained for 10 minutes at 37° C. with 2% 2,3,5-triphenyltetrazolium chloride (TTC, Sigma-Aldrich) in PBS to visualize the infarct volume. The results of these measurements are shown in FIG. 1, FIG. 3, FIG. 5 and FIG. 9.
Based on a repurposing strategy, already marketed compounds validated as NOX inhibitors and NOS inhibitors were selected for further pre-clinical experimentation. Similarly, an already approved sGC stimulator was included repurposed for a non-cardiovascular indication. Wildtype mice were subjected to 1 h tMCAO and subsequently treated with each compound separately, in double combination or triple for later assessment of infarct volume 24 h post-stroke (FIG. 15A-G).

[2] = test system: rat hippocampal brain slices; test: Rat hippocampal brain slices, OGD and re-oxygenation, cell viability by MTT; format: cell-based; conditions: 15 min OGD, 2 h re-oxygenation, GKT136901 0.1 μM, L-NAME 0.3 μM, BAY60-2770 0.01 μM, separately or combined at identical concentrations, vs untreated OGD
From the text: Rat Hippocampal Brain Slice Experiments. —2-3 months old adult male Sprague-Dawley rats were used. For hippocampal slices preparation and induction of oxygen deprivation and glucose deprivation (OGD), animals were decapitated and the brains were removed and transferred into ice-cold Krebs bicarbonate dissection buffer containing glucose and sucrose. Thereafter, hippocampi were dissected and sectioned in transverse slices of 250 μm. To stabilize tissue after slicing, slices were transferred to sucrose-free dissection buffer during 45 minutes at 34° C. Then, control group slices were incubated 15 minutes in a Krebs solution. Slices subjected to OGD were incubated in a Krebs buffer pre-bubbled with 95% N2/5% CO2, where 2-deoxyglucose replaced glucose. OGD period was followed by 2 h of re-oxygenation at 37° C. where slices were returned back to an oxygenated Krebs solution containing glucose^8. During the re-oxygenation period, slices were treated with 0.01 μM BAY60-2770 (BAY; sGCa), 0.1 μM GKT136901 (GKT; NOXi) and 0.3 μM L-NAME (LN; NOSi) separately and in combination at identical respective doses of: NOXi and NOSi, NOSi and sGCa, NOXi and sGCa, and NOXi, NOSi and sGCa. Cellular viability was quantified by their ability to reduce MTT. After re-oxygenation, slices were incubated with MTT (0.5 mg/ml) in Krebs bicarbonate solution for 40 minutes at 37° C. The formazan produced was solubilized by adding 200 μl dimethyl sulfoxide, giving a colored compound whose optical density was measured in an ELISA microplate reader at 540 nm^9. The results of these measurements are depicted in FIG. 2, FIG. 4, FIG. 6 and FIG. 7.

[3] = test system: mice subjected to 45 min tMCAO; test: 45 min tMCAO in non-diabetic and STZ-diabetic mice, infarct size; format: in vivo; conditions: i.p., GKT137831 10 mg/kg, SMTC 1 mg/kg, BAY58-2667 0.03 mg/kg, single or combined
Procedure: Diabetes was induced in mice (6-9 weeks old) by i.p. injections of streptozotocin (STZ) (Merck Millipore, The Netherlands) dissolved in 0.5M sodium citrate buffer with a final dose of 55 mg/kg during 5 consecutive days. Blood glucose was measured daily for 7 days after the last STZ injection using a glucometer (Contor XT, Ascensia Diabetes Care, The Netherlands). Blood glucose levels higher than 12 mM 7 days after STZ injections were considered diabetic and therefore included in the study. Diabetic mice were monitored daily for any signs of welfare discomfort, and blood glucose levels were followed-up weekly (FIG. 18 (Table S2), FIG. 19 (Table S3)).
Therefore, only the combination therapy was assessed.
After animal sacrificing, brains were quickly removed and cut into four 2 mm thick coronal sections using a mouse brain slicer matrix (Zivic Instruments, The Netherlands). Brain slices were kept at 4° C. during 5 min and later stained using 2% 2,3,5-triphenyltetrazolium (TTC; Sigma-Aldrich, The Netherlands) for 15 min at room temperature in PBS to visualize the infarctions. Indirect infarct volumes were calculated by volumetry (ImageJ software, National Institutes of Health, USA) according to the following equation:
Vindirect (mm^3)=Vinfarct×(1−(Vih−Vch)/Vch)
where the term (Vih−Vch) represents the volume difference between the ischemic hemisphere and the control hemisphere and (Vih−Vch)/Vch expresses this difference as a percentage of the control hemisphere.

[4] = test system: Human Brain Microvascular Endothelial Cells (HBMECs); test: HBMEC under hypoxic conditions, cell viability by MTT (Example 5); format: cell-based; conditions: 6 h hypoxia, 24 h re-oxygenation; GKT137831 0.3 μM, SMTC 0.1 μM, BAY 58-2667 0.03 μM, single or combined
Procedure: HBME cells (Cell systems, USA) between passage 3 and 9 were cultured to ˜95% confluence using a specialized cell medium and grow factors (EGM-2 MV BulletKit, Lonza, The Netherlands) enriched with 5% fetal bovine serum (FBS; Sigma-Aldrich, The Netherlands). Before being subjected to hypoxia, HBMECs were seeded at 6×10^4 cells/ml in 12 wells-plate and incubated for 24 h at 37° C. Then, the cell medium was replaced with non-FBS containing medium (2 ml/well) followed by 6 h of hypoxia (94.8% N2, 0.2% 02 and 5% CO2) at 37° C. using the hypoxia workstations (Ruskin Invivo2 400 station, The Netherlands). […] Control cells were exposed to normoxia (75% N2, 20% O2, and 5% CO2) and enriched medium during the hypoxia period.
24 h post-re-oxygenation, cell viability was assessed using the colorimetric MTT (3-(4,5-dimethylthiazol-2-yl)-2,5-diphenyltetrazolium bromide) assay (24). MTT solution (5 mg/ml) was added (100 μl/ml) and incubated for 2 h at 37° C. The formazan salt formed was solubilized by adding DMSO (250 μl/well) for later measuring spectrophotometrically its optical density at 540 nm.

[5] = test system: Human Brain Microvascular Endothelial Cells (HBMEC); test: HBMEC subjected to hypoxia (OGD), cell viability by MTT (Example 3); format: cell-based; conditions: 6 h hypoxia, 24 h reperfusion; GKT136901 0.1 μM, BAY58-2667 0.01 μM, STMC 0.3 μM, alone or combined
Procedure: Human Brain Microvascular Endothelial Cells (HBMEC) Subjected to Hypoxia. —HBMEC (Cell systems, USA) between passage 3 and 9 were cultured using specialized cell medium enriched with 5% fetal bovine serum. HBMECs were seeded (6×10^4 cells/ml) in 12 wells-plates and incubated during 24 h at 37° C. Later, cell medium was replaced for non-FBS containing medium followed by 6 h of hypoxia (94.8% N2, 0.2% O2 and 5% CO2) at 37° C. using hypoxia workstations. The hypoxia period was followed by 24 h of reperfusion in presence or absence of GKT136901 (GKT, 0.1 μM; NOXi), BAY58-2667 (BAY58, 0.01 μM; sGCa) or S-methyl-1-thiocitrulline (STMC, 0.3 μM; NOSi) or a combination of the three. Control cells were exposed to normoxia (75% N2, 20% O2 and 5% CO2), normal glucose concentration and enriched medium during the hypoxia period (Basal). After 24 h reperfusion, cell viability was assessed using the colorimetric MTT assay. MTT solution (5 mg/ml) was added to each well (100 μl/ml) and incubated for 2 h at 37° C. The formazan salt formed was solubilized by adding […] DMSO and measured spectrophotometrically at 540 nm.

Structure (SMILES)	infarct volume [1]	infarct volume, subthreshold doses and triple combination [1]	infarct size, single therapy [1]	infarct size 24 h post-stroke, non-diabetic mice [3]	cell viability, normal glucose [4]	cell viability (MTT) [5]	further results
COC(=O)[C@@H](N)CCCNC(=N)N[N+](=O)[O-] [L-NAME, N omega-Nitro-L-arginine methyl ester]	potent activity in reducing the infarct volume	–	–	–	–	–	infarct volume ([1]; listed as LN): reduced infarct volume; cell viability (MTT reduction) [2]: Neither the NOSi (L-NAME), nor the sGCa (BAY60) alone was able to improve cell viability; cell viability (MTT reduction) ([2]; listed as LN): able to restore the cell viability of the hippocampal cells to some extent
CCCc1cc(=O)[nH]c(=S)[nH]1 [PTU, propylthiouracil]	–	not able to reduce infarct volume; also recorded: no reduction of infarct volume; also recorded: without effect	tends to reduce	–	–	–	–
CN(C)c1cccc(-c2c3c(=O)n(-c4ccccc4Cl)[nH]c3cc(=O)n2C)c1 [GKT137831]	–	–	–	no effect was detected	no reduction was detected	–	–
COC(=O)N(C)c1c(N)nc(-c2nn(Cc3ccccc3F)c3ncccc23)nc1N [Rio, riociguat]	–	not able to reduce infarct volume; also recorded: no reduction of infarct volume; also recorded: without effect	significantly smaller infarct size	–	–	–	–
Cc1c2c(=O)n(-c3ccccc3Cl)[nH]c2cc(=O)n1Cc1ccccn1 [GKT136901]	potent activity in reducing the infarct volume	–	–	–	–	only a relatively small improvement in cell viability	cell viability (MTT reduction) ([2]; listed as GKT): able to restore the cell viability of the hippocampal cells to some extent; also recorded: able to improve cell viability
O=C(O)CCCCN(CCc1cc(F)ccc1OCc1ccc(-c2ccc(C(F)(F)F)cc2)cc1)Cc1ccc(C(=O)O)cc1 [BAY60-2770]	potent activity in reducing the infarct volume	–	–	–	–	–	infarct volume ([1]; listed as BAY60): reduced infarct volume; cell viability (MTT reduction) [2]: Neither the NOSi (L-NAME), nor the sGCa (BAY60) alone was able to improve cell viability; cell viability (MTT reduction) ([2]; listed as BAY): did not show improved cell viability
OCCN1CCN(CCCN2c3ccccc3Sc3ccc(Cl)cc32)CC1 [PPZ, perphenazine]	–	not able to reduce infarct volume; also recorded: no reduction of infarct volume; also recorded: without effect	significantly smaller infarct size	–	–	–	–
CSC(N)=NCCC[C@H](N)C(=O)O [SMTC, S-Methyl-L-thiocitrulline]	–	–	–	no effect was detected	no reduction was detected	only a relatively small improvement in cell viability	–
O=C(O)CCCCN(CCc1ccccc1OCc1ccc(CCc2ccccc2)cc1)Cc1ccc(C(=O)O)cc1 [BAY58-2667, cinaciguat]	–	–	–	no effect was detected	no reduction was detected	lower cell viability than the control cells (Basal)	–
